Assay [1] deals with LL29 cells (primary human fibroblasts derived from IPF patients), α-smooth muscle actin. The assay is described as follows: Inhibition of fibrotic process: TGF-β1-treated primary human fibroblasts, αSMA staining.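 As to all read-outs here: controls were TGF-β1-stimulated wells with DMSO vehicle as the positive reference and cells given DMSO alone as the negative reference.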 Conditions: Homo sapiens, Fibroblast; for EC50: 96 h, TGF-β1 20 ng/mL, 4 days, % cells positive for αSMA; for inhibition at 10 µM: read-out: percent inhibition at 10 μM (given for EC50 >10 μM), TGF-β1, αSMA, 10 μM. The assay is classed as cell-based.

Assay [2] relates to SW480 colon carcinoma cells. The experiment in a line: Cell viability assay (CellTiter-Glo). The assay is classed as cell-based, human. The conditions noted are these: Homo sapiens; for EC50: 96 h, four days, CellTiter-Glo; for inhibition at 10 µM: read-out: percent inhibition at 10 μM (given for EC50 >10 μM), 10 μM.
The test system of assay [3] is secreted cytokines TNFα, IL-6 and KC-GRO in BV-2 cells (mouse microglial cells). The experiment in a line: Secreted cytokines in lipopolysaccharide-stimulated mouse glial cell line. The assay is classed as cell-based. The conditions noted are these: LPS 250 ng/mL 5 hours, table does not say which cytokine. In short, it runs like this: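 BV-2 cells seeded at 35,000/well were pretreated overnight with compound (10 μM to 4.6 nM final), then stimulated 5 h with 250 ng/mL E. coli O111:B4 LPS. Supernatant TNFα, IL-6 and KC-GRO were quantified by electrochemiluminescence against standard curves (pg/mL) to fit EC50. Cytotoxicity was checked by CellTiter-Glo ATP read-out.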

The target in a further assay is recombinant GSK3β kinase (Homo sapiens (Human), UniProt P49841). The experiment in a line: GSK3β kinase assay (Ser/Thr 09 peptide Z-lyte, FRET).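 Also: FRET read-out as coumarin over fluorescein emission ratio, compounds incubated one hour at room temperature, IC50 from dose-response curve fit.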 The assay is classed as biochemical.
recombinant GSK3β kinase, sequence (P49841 whole entry): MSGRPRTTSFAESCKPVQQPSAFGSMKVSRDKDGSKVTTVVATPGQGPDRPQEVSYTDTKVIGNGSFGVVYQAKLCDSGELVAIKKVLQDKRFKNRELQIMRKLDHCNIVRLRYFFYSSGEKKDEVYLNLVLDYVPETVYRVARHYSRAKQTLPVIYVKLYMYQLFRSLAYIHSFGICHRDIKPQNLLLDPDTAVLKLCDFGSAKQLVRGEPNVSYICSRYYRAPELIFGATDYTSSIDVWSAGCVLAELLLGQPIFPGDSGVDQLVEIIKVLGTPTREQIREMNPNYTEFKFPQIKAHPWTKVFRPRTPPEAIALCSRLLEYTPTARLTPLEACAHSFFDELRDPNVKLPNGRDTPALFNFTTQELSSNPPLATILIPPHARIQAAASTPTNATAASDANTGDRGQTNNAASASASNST
For assay [4], the system named is pT212Tau in Dyrk1a- and MAPT-overexpressing HEK293T cells. The assay is described as follows: Tau phosphorylation at Threonine 212 (pT212Tau) sandwich ELISA in double transfected cells. Conditions: Homo sapiens, HEK-293T, read-out: Thr212 EC50 (μM).
Assay [5] addresses recombinant DYRK1A kinase (Homo sapiens (Human), UniProt Q13627). The experiment in a line: DYRK1A kinase assay (Ser/Thr 18 peptide Z-lyte, FRET).
The test system of assay [6] is Tau phosphorylation at Ser396 (pSer396) in SH-SY5Y cells. The assay is described as follows: Tau phosphorylation at Ser396 (pSer396) cell assay, ELISA/western blot. Conditions: Homo sapiens. The assay is classed as cell-based, human. The procedure: SH-SY5Y cells (human neuroblastoma) were cultured in DMEM/F-12 medium supplemented with 15% FBS, Non-essential Amino Acid and Penicillin/Streptomycin. Two days before treatment, cells were seeded onto 96 well plates at 5×10^4 cells/well.
The above synthesized compounds were screened using the cell assay procedure to assess decrease Tau phosphorylation at Ser396 (pSer396) described below.
DMSO-resuspended compounds were dispensed to 8 wells as a serial titration from 10 μM to 4.6 nM final in medium and cells were exposed overnight (16-18 h) in a humidified incubator at 36.6c before harvest.
Cells were lysed with RIPA buffer complemented with phosphatase and protease inhibitors then lysates were spun down at 12,000 g for 10 min to remove any cellular debris. Lysates are then either directly tested for pSer396 by ELISA (Life Technology, Kit KHB7031) or loaded on NuPage Bis-Tris gels for western blot analysis. Colorimetric detection of ELISA signal is performed by Cytation3 plate reader (Biotek) and the chemiluminescence signal for HRP-linked antibodies used in western blotting is detected using a Carestream Image Station. The same pSer396 antibody is used for detection of pTau in both assays.
Blot densitometry for pSer396 and β-actin were analyzed using ImageJ (NIH) and pSer396 Tau ELISA signal was used to plot, draw the curve fitting, and determine each compounds EC50 in Prism (GraphPad).

[7] abbreviates: GSK3β kinase, head says EC50, method says IC50, ATP 46 μM.
Setting [8] is: DYRK1A kinase, head says EC50, method says IC50, ATP 30 μM.
[9] abbreviates: SH-SY5Y cells, overnight (16-18 h), read-out: pSer396 Tau EC50.

From patent US10653688B2, “6-(6-membered heteroaryl and aryl)isoquinolin-3-yl carboxamides and preparation and use thereof” (Samumed, LLC, priority 2017, dated 2020) come the findings set out here.

Read-outs that look alike come from different tables or passages of the source.

For orientation: EC50 means the concentration that produces a half-maximal response. For `O=C(Nc1cc2cc(-c3cccnc3)ccc2cn1)C1CC1` [Compound 6, N-(6-(Pyridin-3-yl)isoquinolin-3-yl)cyclopropanecarboxamide], the EC50 was determined as 197 nM in assay [1]; 1600 nM in assay [2]; 33 nM in assay [3]; 56 nM at recombinant GSK3β kinase (setting [7]); 0.01 µM in assay [4]; 2 nM in assay [5] (setting [8]). Moreover, in assay [6] (setting [9]), the EC50 was 0.798 µM.
For `O=C(CN1CCCC1)Nc1cc2cc(-c3cccnc3)ccc2cn1` [Compound 7, N-(6-(Pyridin-3-yl)isoquinolin-3-yl)-2-(pyrrolidin-1-yl)acetamide], the EC50 turned out to be 4350 nM in assay [1]; 3530 nM in assay [2]; 6 nM in assay [3]; 247 nM at recombinant GSK3β kinase (setting [7]); 0.225 µM in assay [4]; 7 nM in assay [5] (setting [8]). The EC50 in assay [6] (setting [9]) is 2.2 µM.
Broadly, the inhibition is how much of the control response was suppressed. For `O=C(Nc1cc2cc(-c3cccnc3)ccc2cn1)C12CCN(CC1)CC2` [Compound 9, N-(6-(Pyridin-3-yl)isoquinolin-3-yl)quinuclidine-4-carboxamide], the EC50 in assay [1] was 2270 nM; in assay [2], more than 10000 nM; in assay [3], 745 nM; in assay [4], 0.213 µM; in assay [5] (setting [8]), 26 nM; in assay [6] (SH-SY5Y, read-out: pSer396 Tau EC50 (μM)), more than 10 µM. Also, the inhibition at 10 µM in assay [2] worked out at 26%.
Regarding `O=C(CN1CCCC1)Nc1cc2cc(-c3cncc(F)c3)ccc2cn1` [Compound 18, N-(6-(5-Fluoropyridin-3-yl)isoquinolin-3-yl)-2-(pyrrolidin-1-yl)acetamide], the EC50 in assay [1] was 5970 nM; in assay [2] it was more than 10000 nM; in assay [3], 1330 nM; on recombinant GSK3β kinase (setting [7]) it was 1180 nM; in assay [4], 0.053 µM; in assay [5] (setting [8]) it was 39 nM. In addition, the inhibition at 10 µM in assay [2] worked out at 22.2%.
With `CN1CCN(CC(=O)Nc2cc3cc(-c4cncc(F)c4)ccc3cn2)CC1` [Compound 20, N-(6-(5-Fluoropyridin-3-yl)isoquinolin-3-yl)-2-(4-methylpiperazin-1-yl) acetamide], the EC50 in assay [1] is 3140 nM; in assay [2], more than 10000 nM; at recombinant GSK3β kinase it was 3280 nM; in assay [4], 0.252 µM; in assay [5], 31 nM. In assay [2], the inhibition at 10 µM was found to be 37.2%.
For the molecule `CN1CCC(C(=O)Nc2cc3cc(-c4cncc(C#N)c4)ccc3cn2)CC1` [Compound 32, N-(6-(5-Cyanopyridin-3-yl)isoquinolin-3-yl)-1-methylpiperidine-4-carboxamide], the EC50 in assay [1] was 8400 nM; in assay [2], more than 10000 nM; in assay [3] it was 640 nM; on recombinant GSK3β kinase (setting [7]) it was 6660 nM; in assay [4], 0.161 µM; in assay [5] (setting [8]), 57 nM. The inhibition at 10 µM in assay [2] turned out to be 8.8%.
Take `O=C(Nc1cc2cc(-c3cncc(NC4CCNCC4)n3)ccc2cn1)C1CCCCC1` [Compound 44, N-(6-(6-(piperidin-4-ylamino)pyrazin-2-yl)isoquinolin-3-yl) cyclohexanecarboxamide]: the EC50 in assay [1] is 401 nM; in assay [2], 813 nM; in assay [3], 60 nM; on recombinant GSK3β kinase (setting [7]) it was 193 nM; in assay [4], less than 0.003 µM; in assay [5] (setting [8]), 1 nM.
On to `O=C(Nc1cc2cc(-c3cnccn3)ccc2cn1)C1CCN(C2COC2)CC1` [Compound 78, 1-(Oxetan-3-yl)-N-(6-(pyrazin-2-yl)isoquinolin-3-yl)piperidine-4-carboxamide], for which the concentration for a half-maximal effect (EC50) in assay [1] was 2310 nM; in assay [2], more than 10000 nM; in assay [3], 131 nM; on recombinant GSK3β kinase (setting [7]), 804 nM; in assay [5] (setting [8]), 13 nM; in assay [6] (setting [9]) it was more than 10 µM. Besides, the inhibition at 10 µM in assay [2] stood at 27.7%.
As to `CC(C)CN1CCCC(C(=O)Nc2cc3cc(-c4cnccn4)ccc3cn2)CC1` (stereo not shown) [Compound 81, 1-Isobutyl-N-(6-(pyrazin-2-yl)isoquinolin-3-yl)azepane-4-carboxamide], the concentration for a half-maximal effect (EC50) in assay [1] was 5460 nM; in assay [2], more than 10000 nM; in assay [3] it was 1470 nM; at recombinant GSK3β kinase (setting [7]), 1300 nM; in assay [4], 0.37 µM; in assay [5] (setting [8]), 29 nM. In assay [2], the inhibition at 10 µM is 21.3%.
Consider `O=C(Nc1cc2cc(-c3cncc(NC4CCNCC4)n3)ccc2cn1)C1CCOCC1` [Compound 109, N-(6-(6-(Piperidin-4-ylamino)pyrazin-2-yl)isoquinolin-3-yl)tetrahydro-2H-pyran-4-carboxamide], for which the EC50 in assay [1] came to 27 nM; in assay [2] it was 1220 nM; in assay [3], 211 nM; on recombinant GSK3β kinase (setting [7]), 264 nM; in assay [4], 0.014 µM; in assay [5] (setting [8]), 2 nM.
Consider `CN1CCN(c2cc(C(=O)Nc3cc4cc(-c5cnc6ocnc6c5)ccc4cn3)ccn2)CC1` [Compound 132, 2-(4-Methylpiperazin-1-yl)-N-(6-(oxazolo[5,4-b]pyridin-6-yl)isoquinolin-3-yl)isonicotinamide], for which the EC50 in assay [1] is 1350 nM; in assay [2], 1510 nM; in assay [3], 6080 nM; at recombinant GSK3β kinase (setting [7]) it was more than 10000 nM; in assay [4], 6.2 µM; in assay [5] (setting [8]), 14 nM.
Take `Cc1cc2ncc(-c3ccc4cnc(NC(=O)c5ccnc(N6CCN(C)CC6)c5)cc4c3)cc2[nH]1` [Compound 135, N-(6-(2-Methyl-1H-pyrrolo[3,2-b]pyridin-6-yl)isoquinolin-3-yl)-2-(4-methylpiperazin-1-yl)isonicotinamide]: the EC50 in assay [1] was 2480 nM; in assay [2], 2370 nM; in assay [3], 2240 nM; at recombinant GSK3β kinase (setting [7]), more than 10000 nM; in assay [4], 3.2 µM; in assay [5] (setting [8]), 15 nM.
Regarding `O=C(CN1CCOCC1)Nc1cc2cc(-c3cccnc3)c(F)cc2cn1` [Compound 144, N-(7-Fluoro-6-(pyridin-3-yl)isoquinolin-3-yl)-2-morpholinoacetamide], the EC50 in assay [1] is 4600 nM; in assay [2], more than 10000 nM; in assay [3], 157 nM; on recombinant GSK3β kinase (setting [7]) it was 1250 nM; in assay [4] it was 0.051 µM; in assay [5] (setting [8]), 9 nM. In addition, in assay [2], the inhibition at 10 µM was determined as 22%.
On to `CN1CCN(CC(=O)Nc2cc3cc(-c4cccnc4)c(F)cc3cn2)CC1` [Compound 145, N-(7-Fluoro-6-(pyridin-3-yl)isoquinolin-3-yl)-2-(4-methylpiperazin-1-yl) acetamide], for which the EC50 was 6520 nM in assay [1]; more than 10000 nM in assay [2]; 157 nM in assay [3]; 2890 nM on recombinant GSK3β kinase (setting [7]); 0.81 µM in assay [4]; 13 nM in assay [5] (setting [8]). In addition, the inhibition at 10 µM in assay [2] stood at 18.8%.
`COc1cncc(-c2ccc3cnc(NC(=O)CN4CCOCC4)cc3c2)c1` [Compound 147, N-(6-(5-Methoxypyridin-3-yl)isoquinolin-3-yl)-2-morpholinoacetamide]: the EC50 in assay [1] was more than 10000 nM; in assay [2], more than 10000 nM; in assay [3], 628 nM; at recombinant GSK3β kinase (setting [7]), 1020 nM; in assay [4], 0.147 µM; in assay [5] (setting [8]) it was 20 nM. Also, the inhibition at 10 µM came out at 24.4% in assay [1] and 5.3% in assay [2].
As for `[2H]C1([2H])OC([2H])([2H])C([2H])([2H])N(CC(=O)Nc2cc3cc(-c4cccnc4)ccc3cn2)C1([2H])[2H]` [Compound 151, 2-(Morpholino-d8)-N-(6-(pyridin-3-yl)isoquinolin-3-yl)acetamide], the concentration for a half-maximal effect (EC50) in assay [1] was more than 10000 nM; in assay [2] it was more than 10000 nM; in assay [3], 198 nM; on recombinant GSK3β kinase, 795 nM; in assay [4], 0.009 µM; in assay [5], 13 nM. Besides, the inhibition at 10 µM in assay [1] came out at 21.2%; in assay [2], 24.6%.
